Results published in ChEMBL document CHEMBL3120075 (J Med Chem, 2014).

What was measured:
[1] = Ratio of EC50 for HCV genotype 1a H77 infected in human HuH7 cells in presence of 10% BSA to plasma concentration in fasted healthy human at 3 mg/kg, po at 24 hrs; set-up: species or system Huh-7
[2] = Ratio of EC50 for HCV genotype 1a H77 infected in human HuH7 cells in presence of human serum to plasma concentration in fasted healthy human at 3 mg/kg, po at 24 hrs; set-up: species or system Huh-7
[3] = Half life in fasted healthy human at 100 mg/kg, po; format: ADME, organism-based; set-up: dose 100 mg/kg, route oral; conditions: in vivo
[4] = Plasma concentration in fasted healthy human at 100 mg/kg, po at 24 hrs; format: ADME, organism-based; set-up: dose 100 mg/kg, route oral
[5] = AUC (infinity) in fasted healthy human at 100 mg/kg, po; format: ADME, organism-based; set-up: time infinity, dose 100 mg/kg, route oral; conditions: plasma
[6] = Tmax in fasted healthy human at 100 mg/kg, po; format: ADME, organism-based; set-up: dose 100 mg/kg, route oral; conditions: in vivo
[7] = AUClast in fasted healthy human at 100 mg/kg, po; format: ADME, organism-based; set-up: time 0 - last, dose 100 mg/kg, route oral; conditions: plasma
[8] = Cmax in fasted healthy human at 100 mg/kg, po; format: ADME, organism-based; set-up: dose 100 mg/kg, route oral; conditions: in vivo
[9] = Plasma concentration in fasted healthy human at 60 mg/kg, po at 24 hrs; format: ADME, organism-based; set-up: dose 60 mg/kg, route oral
[10] = AUC (infinity) in fasted healthy human at 60 mg/kg, po; format: ADME, organism-based; set-up: time infinity, dose 60 mg/kg, route oral; conditions: plasma
[11] = Half life in fasted healthy human at 60 mg/kg, po; format: ADME, organism-based; set-up: dose 60 mg/kg, route oral; conditions: in vivo
[12] = AUClast in fasted healthy human at 60 mg/kg, po; format: ADME, organism-based; set-up: dose 60 mg/kg, route oral, time 0 - last; conditions: plasma
[13] = Tmax in fasted healthy human at 60 mg/kg, po; format: ADME, organism-based; set-up: dose 60 mg/kg, route oral; conditions: in vivo
[14] = Cmax in fasted healthy human at 60 mg/kg, po; format: ADME, organism-based; set-up: dose 60 mg/kg, route oral; conditions: in vivo
[15] = Plasma concentration in fasted healthy human at 30 mg/kg, po at 24 hrs; format: ADME, organism-based; set-up: dose 30 mg/kg, route oral
[16] = Half life in fasted healthy human at 30 mg/kg, po; format: ADME, organism-based; set-up: dose 30 mg/kg, route oral; conditions: in vivo
[17] = AUClast in fasted healthy human at 30 mg/kg, po; format: ADME, organism-based; set-up: time 0 - last, dose 30 mg/kg, route oral; conditions: plasma
[18] = AUC (infinity) in fasted healthy human at 30 mg/kg, po; format: ADME, organism-based; set-up: time infinity, dose 30 mg/kg, route oral; conditions: plasma
[19] = Tmax in fasted healthy human at 30 mg/kg, po; format: ADME, organism-based; set-up: dose 30 mg/kg, route oral; conditions: in vivo
[20] = Plasma concentration in fasted healthy human at 10 mg/kg, po at 24 hrs; format: ADME, organism-based; set-up: dose 10 mg/kg, route oral
[21] = Cmax in fasted healthy human at 30 mg/kg, po; format: ADME, organism-based; set-up: dose 30 mg/kg, route oral; conditions: in vivo
[22] = Half life in fasted healthy human at 10 mg/kg, po; format: ADME, organism-based; set-up: dose 10 mg/kg, route oral; conditions: in vivo
[23] = AUC (infinity) in fasted healthy human at 10 mg/kg, po; format: ADME, organism-based; set-up: time infinity, dose 10 mg/kg, route oral; conditions: plasma
[24] = Tmax in fasted healthy human at 10 mg/kg, po; format: ADME, organism-based; set-up: dose 10 mg/kg, route oral; conditions: in vivo
[25] = AUClast in fasted healthy human at 10 mg/kg, po; format: ADME, organism-based; set-up: time 0 - last, dose 10 mg/kg, route oral; conditions: plasma
[26] = Cmax in fasted healthy human at 10 mg/kg, po; format: ADME, organism-based; set-up: dose 10 mg/kg, route oral; conditions: in vivo
[27] = Plasma concentration in fasted healthy human at 3 mg/kg, po at 24 hrs; format: ADME, organism-based; set-up: dose 3 mg/kg, route oral
[28] = Half life in fasted healthy human at 3 mg/kg, po; format: ADME, organism-based; set-up: dose 3 mg/kg, route oral; conditions: in vivo
[29] = AUC (infinity) in fasted healthy human at 3 mg/kg, po; format: ADME, organism-based; set-up: time infinity, dose 3 mg/kg, route oral; conditions: plasma
[30] = AUClast in fasted healthy human at 3 mg/kg, po; format: ADME, organism-based; set-up: time 0 - last, dose 3 mg/kg, route oral; conditions: plasma
[31] = Tmax in fasted healthy human at 3 mg/kg, po; format: ADME, organism-based; set-up: dose 3 mg/kg, route oral; conditions: in vivo
[32] = Cmax in fasted healthy human at 3 mg/kg, po; format: ADME, organism-based; set-up: dose 3 mg/kg, route oral; conditions: in vivo

COC(=O)N[C@H](C(=O)N1CC2(CC2)C[C@H]1c1nc(-c2ccc3c(c2)C(F)(F)c2cc(-c4ccc5[nH]c([C@@H]6[C@H]7CC[C@H](C7)N6C(=O)[C@@H](NC(=O)OC)C(C)C)nc5c4)ccc2-3)c[nH]1)C(C)C
Ratio [1]: 12
Ratio [2]: 12
half-life [3]: 39.5 h
concentration at 24 h [4]: 98.8 nM
AUC(0-inf) [5]: 8.66 µM·h
Tmax [6]: 5.5 h
AUC(0-t) [7]: 7.05 µM·h
Cmax [8]: 242 nM
concentration at 24 h [9]: 56.4 nM
AUC(0-inf) [10]: 5.3 µM·h
half-life [11]: 44.2 h
AUC(0-t) [12]: 4.01 µM·h
Tmax [13]: 5.5 h
Cmax [14]: 133 nM
concentration at 24 h [15]: 31.4 nM
half-life [16]: 37.2 h
AUC(0-t) [17]: 2.24 µM·h
AUC(0-inf) [18]: 2.72 µM·h
Tmax [19]: 5.75 h
concentration at 24 h [20]: 7.94 nM
Cmax [21]: 82.2 nM
half-life [22]: 42.4 h
AUC(0-inf) [23]: 0.695 µM·h
Tmax [24]: 5 h
AUC(0-t) [25]: 0.558 µM·h
Cmax [26]: 21.3 nM
concentration at 24 h [27]: 2.45 nM
half-life [28]: 45.2 h
AUC(0-inf) [29]: 0.245 µM·h
AUC(0-t) [30]: 0.14 µM·h
Tmax [31]: 5.25 h
Cmax [32]: 6.75 nM
